Measurements published in US20090082337A1, “Compositions Comprising Quinolone and Methods for Treating or Controlling Infections” (priority 2007, published 2009).
≈ marks a conversion by molar mass, not a printed value. Where two headings read alike, the source gives them in different places.

How the values were obtained:
Format in all cases: cell-based
[1] = test system: Acinetobacter calcoaceticus (IFO 12552); assay: In vitro anti-bacterial activity (MIC90), Gram-negative bacteria; conditions: IFO12552, Gram-negative reference strain
Protocol: (§1) In yet another aspect, said another quinolone has a MIC90 value for a Gram-negative bacterium that is lower than that of the fluoroquinolone having Formula I, II, III, IV, V, VI, VII, or VIII for the same bacterium, said fluoroquinolone being included in the composition. MIC90 is the minimum concentration of the active compound required to inhibit ninety percent of the growth of a specified pathogen, in μg/ml.
(§2) Anti-bacterial activity of the compound having Formula IV was tested against several Gram-negative reference bacteria strains and compared to the anti-bacterial activity of three commercially available antibiotics (nadifloxacin, ofloxacin, and sparfloxacin). The results are shown in Table 2 as MIC90 values (minimum concentration of the active compound required to inhibit ninety percent of the growth of a specified pathogen, in μg/ml).

[2] = test system: Enterobacter aerogenes (IFO 13534); assay: as above; conditions: Klebsiella aerogenes, IFO13534, Gram-negative reference strain
Protocol: as §1, §2

Escherichia coli (O-1) = assay: as above; conditions: Gram-negative reference strain
Protocol: as §1, §2

[3] = test system: Klebsiella pneumoniae (IFO 13541); assay: as above; conditions: IFO13541, Gram-negative reference strain
Protocol: as §1, §2

[4] = test system: Proteus mirabilis (IFO 13300); assay: as above; conditions: IFO13300, Gram-negative reference strain
Protocol: as §1, §2

Proteus rettgeri = assay: as above; conditions: Providencia rettgeri, Gram-negative reference strain
Protocol: as §1, §2

[5] = test system: Pseudomonas aeruginosa (ATCC 27853); assay: as above; conditions: ATCC27853, Gram-negative reference strain
Protocol: as §1, §2

[6] = test system: Pseudomonas aeruginosa (IFO 13736); assay: as above; conditions: IFO13736, Gram-negative reference strain
Protocol: as §1, §2

[7] = test system: Serratia marcenscens (NHL); assay: as above; conditions: Gram-negative reference strain
Protocol: as §1, §2

Shigella flexneri (2b) = assay: as above; conditions: Gram-negative reference strain
Protocol: as §1, §2

[8] = test system: Salmonella typhimurium (TD); assay: as above; conditions: Salmonella enterica, Gram-negative reference strain
Protocol: Anti-bacterial activity of the compound having Formula IV was tested against several Gram-negative reference bacteria strains and compared to the anti-bacterial activity of three commercially available antibiotics (nadifloxacin, ofloxacin, and sparfloxacin).

[9] = test system: Bacillis subtilis (ATCC 6633); assay: In vitro anti-bacterial activity (MIC90), Gram-positive bacteria; conditions: Gram-positive reference strain
Protocol: as §1, with “μg/ml. Anti-bacterial activity of the compound having Formula […] was tested against several Gram-positive reference bacteria strains and compared to the anti-bacterial activity of three commercially available antibiotics (nadifloxacin, ofloxacin, and sparfloxacin).” for “μg/ml.”

[10] = test system: Streptococcus pyogenes (Cook); assay: as above; conditions: Gram-positive reference strain
Protocol: as §1, with “μg/ml. Anti-bacterial activity of the compound having Formula […] was tested against several Gram-positive reference bacteria strains and compared to the anti-bacterial activity of three commercially available antibiotics (nadifloxacin, ofloxacin, and sparfloxacin).” for “μg/ml.”

[11] = test system: Staphylococcus aureus (ATCC 33591); assay: In vitro anti-bacterial activity (MIC90), methicillin-resistant Staphylococcus aureus isolates; conditions: ATCC33591; methicillin-resistant Staphylococcus aureus (ATCC 33591)
Protocol: as §1
(§3) Anti-bacterial activity of the compound having Formula IV was tested against some methicillin-resistant Staphylococcus aureus bacteria strains and compared to the anti-bacterial activity of three commercially available antibiotics (nadifloxacin, ofloxacin, and sparfloxacin).

[12] = test system: Staphylococcus aureus (ATCC 33592); assay: as above; conditions: ATCC33592; methicillin-resistant Staphylococcus aureus (ATCC 33592)
Protocol: as §1, §3

[13] = test system: Staphylococcus aureus (ATCC 33593); assay: as above; conditions: ATCC33593; methicillin-resistant Staphylococcus aureus (ATCC 33593)
Protocol: as §1, §3

[14] = test system: Staphylococcus aureus (No. 395); assay: as above; conditions: methicillin-resistant Staphylococcus aureus (No. 395)
Protocol: as §1, §3

[15] = test system: Staphylococcus aureus (No. 415); assay: as above; conditions: methicillin-resistant Staphylococcus aureus (No. 415)
Protocol: as §1, §3

[16] = test system: Staphylococcus aureus (No. 419); assay: as above; conditions: methicillin-resistant Staphylococcus aureus (No. 419)
Protocol: as §1, §3

[17] = test system: Staphylococcus aureus (No. 420); assay: as above; conditions: methicillin-resistant Staphylococcus aureus (No. 420)
Protocol: as §1, §3

[18] = test system: Staphylococcus aureus (No. 421); assay: as above; conditions: methicillin-resistant Staphylococcus aureus (No. 421)
Protocol: as §1, §3

[19] = test system: Clostridium perfringens (KZ 210); assay: microbe, parasite or virus in culture
[20] = test system: Peptostreptococcus micros (GIFU 7824); assay: In vitro anti-bacterial activity (MIC90), anaerobic bacteria; conditions: Parvimonas micra, anaerobic reference bacteria
[21] = test system: Peptostreptococcus magnum (GAI 0664); assay: as above; conditions: anaerobic reference bacteria
[22] = test system: Propionibacterium acnes (GAI 5419); assay: as above; conditions: Cutibacterium acnes, anaerobic reference bacteria
[23] = test system: Propionibacterium acnes (ATCC 6919); assay: as above; conditions: Cutibacterium acnes, ATCC6919, anaerobic reference bacteria
[24] = test system: Bacteroides fragillis (GAI 0675); assay: as above; conditions: anaerobic reference bacteria
[25] = test system: Bacteroides thetaiotaomicron (GAI 0659); assay: as above
[26] = test system: Bacteroides vulgatus (GAI 0673); assay: as above; conditions: Phocaeicola vulgatus, anaerobic reference bacteria
[27] = test system: Veillonella parvula (GAI 5602); assay: as above; conditions: anaerobic reference bacteria

| SMILES | MIC90 [1] [µg/mL] | MIC90 [2] [µg/mL] | MIC90 (Escherichia coli (O-1)) [µg/mL] | MIC90 [3] [µg/mL] | MIC90 [4] [µg/mL] | MIC90 (Proteus rettgeri) [µg/mL] | MIC90 [5] [µg/mL] | MIC90 [6] [µg/mL] | MIC90 [7] [µg/mL] | MIC90 (Shigella flexneri (2b)) [µg/mL] | MIC90 [8] [µg/mL] | MIC90 [9] [µg/mL] | MIC90 [10] [µg/mL] | MIC90 [11] [µg/mL] | MIC90 [12] [µg/mL] | MIC90 [13] [µg/mL] | MIC90 [14] [µg/mL] | MIC90 [15] [µg/mL] | MIC90 [16] [µg/mL] | MIC90 [17] [µg/mL] | also measured |
| --- | --- | --- | --- | --- | --- | --- | --- | --- | --- | --- | --- | --- | --- | --- | --- | --- | --- | --- | --- | --- | --- |
| N[C@@H]1CCCCN(c2c(F)cc3c(=O)c(C(=O)O)cn(C4CC4)c3c2Cl)C1 [Compound Having Formula IV] | 0.39 | 0.39 | 0.1 | 0.024 | 0.1 | 0.39 | 1.56 | 1.56 | 0.2 | 0.006 | 0.05 | 0.012 | 0.1 | 0.012 | 0.05 | 0.012 | 0.006 | 0.05 | 0.1 | 0.1 | MIC90 [18]: 0.2 µg/mL; MIC90 [19]: 0.2 µg/mL; MIC90 [20]: 0.2 µg/mL; MIC90 [21]: 0.05 µg/mL; MIC90 [22]: 0.2 µg/mL; MIC90 [23]: 0.2 µg/mL; MIC90 [24]: 0.1 µg/mL; MIC90 ([25]; Bacteroides thetaiotaomicron (GAI 0659), anaerobic reference bacteria, read-out: MIC90): 0.2 µg/mL; MIC90 [26]: 0.1 µg/mL; MIC90 [27]: 0.1 µg/mL |
| CC1CCc2c(N3CCC(O)CC3)c(F)cc3c(=O)c(C(=O)O)cn1c23 (stereo not drawn) [Nadifloxacin, nadifloxacin] | 0.78 (≈ 2.16 µM) | 1.56 (≈ 4.33 µM) | 0.2 (≈ 0.555 µM) | 0.1 (≈ 0.277 µM) | 0.1 (≈ 0.277 µM) | 0.39 (≈ 1.08 µM) | 6.25 (≈ 17.3 µM) | 3.13 (≈ 8.69 µM) | 1.56 (≈ 4.33 µM) | 0.006 (≈ 0.0166 µM) | 0.2 (≈ 0.555 µM) | 0.006 (≈ 0.0166 µM) | 0.78 (≈ 2.16 µM) | 0.006 (≈ 0.0166 µM) | 0.05 (≈ 0.139 µM) | 0.024 (≈ 0.0666 µM) | 0.024 (≈ 0.0666 µM) | 0.1 (≈ 0.277 µM) | 0.39 (≈ 1.08 µM) | 0.78 (≈ 2.16 µM) | MIC90 [18]: 0.78 µg/mL (≈ 2.16 µM); MIC90 [19]: 0.2 µg/mL (≈ 0.555 µM); MIC90 [20]: 0.39 µg/mL (≈ 1.08 µM); MIC90 [21]: 0.2 µg/mL (≈ 0.555 µM); MIC90 [22]: 0.2 µg/mL (≈ 0.555 µM); MIC90 [23]: 0.2 µg/mL (≈ 0.555 µM); MIC90 [24]: 1.56 µg/mL (≈ 4.33 µM); MIC90 ([25]; Bacteroides thetaiotaomicron): 1.56 µg/mL (≈ 4.33 µM); MIC90 [26]: 0.78 µg/mL (≈ 2.16 µM); MIC90 [27]: 0.78 µg/mL (≈ 2.16 µM) |
| CC1COc2c(N3CCN(C)CC3)c(F)cc3c(=O)c(C(=O)O)cn1c23 (stereo not drawn) [Ofloxacin, ofloxacin] | 0.39 (≈ 1.08 µM) | 0.2 (≈ 0.553 µM) | 0.05 (≈ 0.138 µM) | 0.024 (≈ 0.0664 µM) | 0.05 (≈ 0.138 µM) | 0.2 (≈ 0.553 µM) | 3.13 (≈ 8.66 µM) | 1.56 (≈ 4.32 µM) | 0.1 (≈ 0.277 µM) | 0.006 (≈ 0.0166 µM) | 0.05 (≈ 0.138 µM) | 0.05 (≈ 0.138 µM) | 0.78 (≈ 2.16 µM) | 0.05 (≈ 0.138 µM) | 0.39 (≈ 1.08 µM) | 0.2 (≈ 0.553 µM) | 0.2 (≈ 0.553 µM) | 0.78 (≈ 2.16 µM) | 3.13 (≈ 8.66 µM) | 1.56 (≈ 4.32 µM) | MIC90 [18]: 1.56 µg/mL (≈ 4.32 µM); MIC90 [19]: 0.78 µg/mL (≈ 2.16 µM); MIC90 [20]: 0.78 µg/mL (≈ 2.16 µM); MIC90 [21]: 0.39 µg/mL (≈ 1.08 µM); MIC90 [22]: 0.78 µg/mL (≈ 2.16 µM); MIC90 [23]: 0.78 µg/mL (≈ 2.16 µM); MIC90 [24]: 1.56 µg/mL (≈ 4.32 µM); MIC90 ([25]; Bacteroides thetaiotaomicron): 3.13 µg/mL (≈ 8.66 µM); MIC90 [26]: 3.13 µg/mL (≈ 8.66 µM); MIC90 [27]: 0.39 µg/mL (≈ 1.08 µM) |
| C[C@@H]1CN(c2c(F)c(N)c3c(=O)c(C(=O)O)cn(C4CC4)c3c2F)C[C@H](C)N1 [Sparfloxacin, sparfloxacin] | 0.024 (≈ 0.0612 µM) | 0.1 (≈ 0.255 µM) | 0.012 (≈ 0.0306 µM) | 0.012 (≈ 0.0306 µM) | 0.1 (≈ 0.255 µM) | 0.2 (≈ 0.51 µM) | 0.78 (≈ 1.99 µM) | 0.78 (≈ 1.99 µM) | 0.2 (≈ 0.51 µM) | 0.006 (≈ 0.0153 µM) | 0.012 (≈ 0.0306 µM) | 0.024 (≈ 0.0612 µM) | 0.39 (≈ 0.994 µM) | 0.024 (≈ 0.0612 µM) | 0.1 (≈ 0.255 µM) | 0.024 (≈ 0.0612 µM) | 0.05 (≈ 0.127 µM) | 0.2 (≈ 0.51 µM) | 1.56 (≈ 3.98 µM) | 0.78 (≈ 1.99 µM) | MIC90 [18]: 0.39 µg/mL (≈ 0.994 µM); MIC90 [19]: 0.39 µg/mL (≈ 0.994 µM); MIC90 [20]: 0.78 µg/mL (≈ 1.99 µM); MIC90 [21]: 0.1 µg/mL (≈ 0.255 µM); MIC90 [22]: 0.39 µg/mL (≈ 0.994 µM); MIC90 [23]: 0.39 µg/mL (≈ 0.994 µM); MIC90 [24]: 0.78 µg/mL (≈ 1.99 µM); MIC90 ([25]; Bacteroides thetaiotaomicron): 0.78 µg/mL (≈ 1.99 µM); MIC90 [26]: 0.78 µg/mL (≈ 1.99 µM); MIC90 [27]: 0.2 µg/mL (≈ 0.51 µM) |
